Experimental data taken from paper PMC5564600 (Oncotarget, 2017).
Read-outs that look alike come from different tables or passages of the source.

Columns and labels:
Assay type in all cases: binding
G2019S mutant of LRRK2 = target: T1, G2019S mutant of LRRK2 (Homo sapiens, UniProt Q5S007, G2019S); experiment: KINOMEscan, LRRK2 G2019S; conditions: for remaining binding at 1 µM / remaining binding at 10 µM: kinase LRRK2(G2019S); for remaining binding at 1 µM: read-out: % of control at 1 µM; for remaining binding at 10 µM: read-out: % of control at 10 µM
T1 construct: purchased Ambit Biosciences (scanMAXX KINOMEscan)
T1 sequence (Q5S007 whole entry G2019S): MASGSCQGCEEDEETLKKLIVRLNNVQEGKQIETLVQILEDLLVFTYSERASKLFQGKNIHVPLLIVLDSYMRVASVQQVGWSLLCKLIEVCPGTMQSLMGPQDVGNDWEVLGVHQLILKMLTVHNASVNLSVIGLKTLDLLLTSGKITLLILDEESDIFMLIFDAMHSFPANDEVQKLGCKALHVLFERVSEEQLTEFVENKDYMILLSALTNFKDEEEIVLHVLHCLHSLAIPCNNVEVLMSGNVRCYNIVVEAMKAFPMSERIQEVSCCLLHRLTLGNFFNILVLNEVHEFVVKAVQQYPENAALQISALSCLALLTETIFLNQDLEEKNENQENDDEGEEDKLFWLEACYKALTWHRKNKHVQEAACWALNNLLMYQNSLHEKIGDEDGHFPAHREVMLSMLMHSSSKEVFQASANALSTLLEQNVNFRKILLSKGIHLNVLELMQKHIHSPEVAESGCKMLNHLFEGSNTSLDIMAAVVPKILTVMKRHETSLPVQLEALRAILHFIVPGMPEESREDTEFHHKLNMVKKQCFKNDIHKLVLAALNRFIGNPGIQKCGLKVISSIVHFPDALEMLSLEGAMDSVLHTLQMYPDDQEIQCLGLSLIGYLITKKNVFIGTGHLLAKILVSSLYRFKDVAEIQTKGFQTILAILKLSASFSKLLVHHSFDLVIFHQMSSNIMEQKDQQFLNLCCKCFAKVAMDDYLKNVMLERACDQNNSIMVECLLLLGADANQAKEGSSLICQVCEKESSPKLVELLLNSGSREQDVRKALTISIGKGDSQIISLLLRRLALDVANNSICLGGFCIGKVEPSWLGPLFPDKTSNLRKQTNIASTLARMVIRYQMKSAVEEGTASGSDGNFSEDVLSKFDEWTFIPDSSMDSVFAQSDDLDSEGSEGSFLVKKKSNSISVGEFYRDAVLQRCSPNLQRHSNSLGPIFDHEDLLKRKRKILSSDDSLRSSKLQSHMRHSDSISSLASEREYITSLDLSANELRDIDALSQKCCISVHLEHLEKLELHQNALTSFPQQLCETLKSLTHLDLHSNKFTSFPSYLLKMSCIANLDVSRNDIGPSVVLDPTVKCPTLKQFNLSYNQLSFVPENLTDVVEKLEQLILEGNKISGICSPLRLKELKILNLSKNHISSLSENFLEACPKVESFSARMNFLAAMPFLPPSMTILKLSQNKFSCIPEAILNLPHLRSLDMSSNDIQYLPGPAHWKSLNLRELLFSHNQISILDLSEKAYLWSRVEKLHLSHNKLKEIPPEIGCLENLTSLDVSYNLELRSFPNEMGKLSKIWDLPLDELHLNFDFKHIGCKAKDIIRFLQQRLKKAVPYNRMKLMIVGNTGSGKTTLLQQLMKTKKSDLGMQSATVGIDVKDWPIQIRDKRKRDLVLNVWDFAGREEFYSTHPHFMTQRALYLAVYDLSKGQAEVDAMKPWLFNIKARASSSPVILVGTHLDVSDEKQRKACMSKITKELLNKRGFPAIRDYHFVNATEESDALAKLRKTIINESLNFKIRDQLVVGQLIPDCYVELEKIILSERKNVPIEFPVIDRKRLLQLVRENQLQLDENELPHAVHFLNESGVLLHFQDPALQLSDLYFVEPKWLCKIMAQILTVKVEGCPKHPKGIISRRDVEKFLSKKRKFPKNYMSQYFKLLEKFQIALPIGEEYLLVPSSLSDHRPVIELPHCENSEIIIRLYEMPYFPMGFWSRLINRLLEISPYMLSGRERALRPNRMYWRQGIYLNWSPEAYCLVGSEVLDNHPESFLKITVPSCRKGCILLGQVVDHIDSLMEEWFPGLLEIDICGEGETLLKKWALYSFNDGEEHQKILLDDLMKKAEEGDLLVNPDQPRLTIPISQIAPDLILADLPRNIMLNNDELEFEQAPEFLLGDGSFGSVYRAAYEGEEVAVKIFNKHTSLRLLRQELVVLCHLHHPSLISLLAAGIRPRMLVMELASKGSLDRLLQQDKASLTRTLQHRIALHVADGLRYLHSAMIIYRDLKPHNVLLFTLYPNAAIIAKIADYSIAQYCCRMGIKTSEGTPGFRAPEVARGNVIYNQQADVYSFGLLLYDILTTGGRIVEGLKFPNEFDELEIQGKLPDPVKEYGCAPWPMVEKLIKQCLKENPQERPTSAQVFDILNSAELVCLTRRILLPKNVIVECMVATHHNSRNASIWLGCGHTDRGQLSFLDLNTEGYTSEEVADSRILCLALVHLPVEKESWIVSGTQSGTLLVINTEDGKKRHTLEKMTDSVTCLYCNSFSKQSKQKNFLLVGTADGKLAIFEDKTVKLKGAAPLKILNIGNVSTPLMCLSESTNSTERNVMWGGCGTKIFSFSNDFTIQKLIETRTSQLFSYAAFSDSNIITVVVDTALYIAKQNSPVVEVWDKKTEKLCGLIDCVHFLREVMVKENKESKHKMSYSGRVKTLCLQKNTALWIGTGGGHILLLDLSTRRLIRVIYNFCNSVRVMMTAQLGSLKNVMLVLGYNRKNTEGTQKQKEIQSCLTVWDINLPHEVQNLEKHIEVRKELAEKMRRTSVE

FLT3 (D835Y mutant) = target: T2, FLT3 (D835Y mutant) (Homo sapiens, UniProt P36888, D835Y); experiment: KINOMEscan, FLT3 D835Y; conditions: for remaining binding at 1 µM / remaining binding at 10 µM: FLT3(D835Y); for remaining binding at 1 µM: read-out: % of control at 1 µM; for remaining binding at 10 µM: read-out: % of control at 10 µM
T2 construct: purchased Ambit Biosciences (scanMAXX KINOMEscan)
T2 sequence (P36888 27-993 D835Y): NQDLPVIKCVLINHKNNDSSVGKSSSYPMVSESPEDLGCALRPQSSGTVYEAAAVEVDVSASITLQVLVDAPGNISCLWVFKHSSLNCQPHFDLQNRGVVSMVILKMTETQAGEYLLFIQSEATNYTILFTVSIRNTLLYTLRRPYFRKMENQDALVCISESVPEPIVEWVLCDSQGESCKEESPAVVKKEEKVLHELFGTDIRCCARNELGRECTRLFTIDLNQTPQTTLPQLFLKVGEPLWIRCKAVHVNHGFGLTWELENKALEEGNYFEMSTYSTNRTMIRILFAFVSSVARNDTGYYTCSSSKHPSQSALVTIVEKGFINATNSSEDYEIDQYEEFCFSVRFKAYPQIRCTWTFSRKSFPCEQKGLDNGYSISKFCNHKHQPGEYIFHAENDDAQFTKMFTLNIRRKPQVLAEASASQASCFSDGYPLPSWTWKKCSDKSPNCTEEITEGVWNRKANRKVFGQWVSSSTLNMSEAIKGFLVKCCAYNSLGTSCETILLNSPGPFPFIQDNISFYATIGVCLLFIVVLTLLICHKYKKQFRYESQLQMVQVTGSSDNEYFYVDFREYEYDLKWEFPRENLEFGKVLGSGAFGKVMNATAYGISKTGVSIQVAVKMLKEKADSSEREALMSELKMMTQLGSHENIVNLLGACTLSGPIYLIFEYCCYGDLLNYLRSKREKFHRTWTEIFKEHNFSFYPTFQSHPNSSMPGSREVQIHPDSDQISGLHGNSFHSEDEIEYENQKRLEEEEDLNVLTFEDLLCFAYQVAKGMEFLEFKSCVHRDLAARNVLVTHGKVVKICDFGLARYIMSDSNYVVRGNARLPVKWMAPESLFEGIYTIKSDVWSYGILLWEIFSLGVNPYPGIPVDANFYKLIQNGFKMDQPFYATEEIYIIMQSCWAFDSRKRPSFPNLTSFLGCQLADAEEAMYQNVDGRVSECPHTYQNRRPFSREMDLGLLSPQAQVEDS

CLK4 = target: T3, CLK4 (Homo sapiens, UniProt Q9HAZ1); experiment: KINOMEscan, CLK4; conditions: for remaining binding at 1 µM: read-out: % of control at 1 µM
T3 construct: purchased Ambit Biosciences (scanMAXX KINOMEscan)
T3 sequence (Q9HAZ1 whole entry): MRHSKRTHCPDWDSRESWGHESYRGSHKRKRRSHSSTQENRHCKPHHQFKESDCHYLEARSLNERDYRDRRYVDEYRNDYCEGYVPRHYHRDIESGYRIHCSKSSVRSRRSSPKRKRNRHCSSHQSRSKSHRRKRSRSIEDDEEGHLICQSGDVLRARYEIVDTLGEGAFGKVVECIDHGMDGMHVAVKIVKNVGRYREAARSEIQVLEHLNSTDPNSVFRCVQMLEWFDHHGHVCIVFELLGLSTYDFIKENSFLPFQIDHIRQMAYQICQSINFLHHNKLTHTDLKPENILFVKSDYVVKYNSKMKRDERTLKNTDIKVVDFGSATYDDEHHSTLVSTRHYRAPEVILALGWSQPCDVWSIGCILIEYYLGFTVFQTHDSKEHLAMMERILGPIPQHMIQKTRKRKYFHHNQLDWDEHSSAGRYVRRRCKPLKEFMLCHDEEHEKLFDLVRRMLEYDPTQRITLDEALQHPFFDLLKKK

MAP4K2 = target: T4, MAP4K2 (Homo sapiens, UniProt Q12851); experiment: KINOMEscan, MAP4K2; conditions: for remaining binding at 1 µM / remaining binding at 10 µM: kinase MAP4K2; for remaining binding at 1 µM: read-out: % of control at 1 µM; for remaining binding at 10 µM: read-out: % of control at 10 µM
T4 construct: purchased Ambit Biosciences (scanMAXX KINOMEscan)
T4 sequence (Q12851 1-820): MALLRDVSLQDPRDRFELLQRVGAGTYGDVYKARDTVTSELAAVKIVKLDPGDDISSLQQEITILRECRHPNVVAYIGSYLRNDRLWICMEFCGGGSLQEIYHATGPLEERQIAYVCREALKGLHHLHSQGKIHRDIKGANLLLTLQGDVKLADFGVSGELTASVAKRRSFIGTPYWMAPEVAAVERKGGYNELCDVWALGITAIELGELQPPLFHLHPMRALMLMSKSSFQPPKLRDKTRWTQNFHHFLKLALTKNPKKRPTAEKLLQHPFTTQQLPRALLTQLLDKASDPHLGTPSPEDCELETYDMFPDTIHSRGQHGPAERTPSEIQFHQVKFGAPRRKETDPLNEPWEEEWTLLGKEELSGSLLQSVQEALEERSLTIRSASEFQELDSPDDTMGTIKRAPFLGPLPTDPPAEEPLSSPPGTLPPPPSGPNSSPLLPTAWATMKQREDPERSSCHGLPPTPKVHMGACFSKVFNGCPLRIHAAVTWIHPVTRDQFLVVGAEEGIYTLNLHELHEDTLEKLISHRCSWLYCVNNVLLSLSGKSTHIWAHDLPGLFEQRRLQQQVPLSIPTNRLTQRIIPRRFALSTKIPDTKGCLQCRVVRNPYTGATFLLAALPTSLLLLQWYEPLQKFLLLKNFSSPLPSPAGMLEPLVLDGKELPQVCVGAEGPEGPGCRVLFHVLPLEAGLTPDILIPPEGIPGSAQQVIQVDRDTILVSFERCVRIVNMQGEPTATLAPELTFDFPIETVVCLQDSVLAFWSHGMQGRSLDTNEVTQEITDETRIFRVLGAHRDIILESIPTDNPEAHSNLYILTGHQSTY

PIK4CB = target: T5, PIK4CB (Homo sapiens, UniProt Q9UBF8); experiment: KINOMEscan, PIK4CB; conditions: for remaining binding at 1 µM: read-out: % of control at 1 µM; for remaining binding at 10 µM: read-out: % of control at 10 µM
T5 construct: purchased Ambit Biosciences (scanMAXX KINOMEscan)
T5 sequence (Q9UBF8 whole entry): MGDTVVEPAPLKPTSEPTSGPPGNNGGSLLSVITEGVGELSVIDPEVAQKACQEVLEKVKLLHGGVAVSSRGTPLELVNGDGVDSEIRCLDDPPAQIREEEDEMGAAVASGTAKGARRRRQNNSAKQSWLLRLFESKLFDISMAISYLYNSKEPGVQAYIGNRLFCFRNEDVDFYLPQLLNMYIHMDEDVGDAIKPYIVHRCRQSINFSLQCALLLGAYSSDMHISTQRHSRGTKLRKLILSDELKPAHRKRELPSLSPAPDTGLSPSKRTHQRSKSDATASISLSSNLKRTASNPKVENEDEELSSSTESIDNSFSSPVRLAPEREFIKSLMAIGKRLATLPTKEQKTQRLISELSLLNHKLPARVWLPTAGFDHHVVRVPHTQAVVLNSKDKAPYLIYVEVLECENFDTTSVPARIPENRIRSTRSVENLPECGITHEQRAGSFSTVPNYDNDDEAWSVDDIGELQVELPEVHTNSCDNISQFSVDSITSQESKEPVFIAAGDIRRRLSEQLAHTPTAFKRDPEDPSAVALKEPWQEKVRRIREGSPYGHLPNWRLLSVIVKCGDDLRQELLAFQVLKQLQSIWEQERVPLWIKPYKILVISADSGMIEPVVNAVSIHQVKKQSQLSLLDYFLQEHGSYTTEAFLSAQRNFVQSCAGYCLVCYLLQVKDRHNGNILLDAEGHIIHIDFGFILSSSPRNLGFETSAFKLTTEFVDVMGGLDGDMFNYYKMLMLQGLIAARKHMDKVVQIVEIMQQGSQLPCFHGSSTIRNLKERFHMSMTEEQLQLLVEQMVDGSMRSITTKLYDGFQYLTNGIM

| SMILES | remaining binding at 1 µM (G2019S mutant of LRRK2) [%] | remaining binding at 10 µM (G2019S mutant of LRRK2) [%] | remaining binding at 1 µM (FLT3 (D835Y mutant)) [%] | remaining binding at 10 µM (FLT3 (D835Y mutant)) [%] | binding to CLK4 (CLK4; 10 μM) [%] | remaining binding at 1 µM (CLK4; CLK4) [%] | remaining binding at 10 µM (CLK4; CLK4, 10 µM, read-out: % of control at 10 µM) [%] | remaining binding at 1 µM (MAP4K2) [%] | remaining binding at 10 µM (MAP4K2) [%] | remaining binding at 1 µM (PIK4CB; kinase PIK4CB, 1 µM) [%] | remaining binding at 10 µM (PIK4CB; kinase PIK4CB) [%] | inhibition at 1 µM (FLT3 (D835Y mutant); 1 μM) [%] | inhibition at 1 µM (CLK4; 1 μM) [%] | inhibition at 1 µM (MAP4K2; 1 μM) [%] | remaining binding at 1 µM (PIK4CB) [%] | off-target binding to PIK4CB (PIK4CB; 1 μM) | binding to LRRK2 G2019S (G2019S mutant of LRRK2; 1 μM) [%] |
| --- | --- | --- | --- | --- | --- | --- | --- | --- | --- | --- | --- | --- | --- | --- | --- | --- | --- |
| Nc1cc(C(F)(F)F)c(-c2cc(N3CCOCC3)nc(N3CCOCC3)n2)cn1 [Buparlisib] | 88 | 80 | 70 | 42 | > 80 | 38 | 13 | 82 | 100 | 86 | 100 |  |  |  |  |  |  |
| Cn1c(=O)n(-c2ccc(C(C)(C)C#N)cc2)c2c3cc(-c4cnc5ccccc5c4)ccc3ncc21 [Dactolisib, 2-methyl-2-[4-(3-methyl-2-oxo-8-quinolin-3-yl-2,3-dihydroimidazo[4,5-c]quinolin-1-yl)-phenyl] propionitrile] | 53 |  | 13 |  |  | 12 |  | 0.25 |  |  |  | > 80 | > 80 | > 80 | 64 |  |  |
| COc1ncc(-c2ccc3nccc(-c4ccnnc4)c3c2)cc1NS(=O)(=O)c1ccc(F)cc1F [Omipalisib] | 87 |  | 100 |  |  | 100 |  | 100 |  | 0.7 |  |  |  |  |  | non-selective |  |
| CS(=O)(=O)N1CCN(Cc2cc3nc(-c4cccc5[nH]ncc45)nc(N4CCOCC4)c3s2)CC1 [Pictilisib, 2-(1H-indazol-4-yl)-6-(4-methanesulfonyl-piperazin-1-ylmethyl)-4-morpholin-4-yl-t hieno[3,2-d]pyrimidine] | 82 | 51 |  | 5.4 |  |  |  | 100 | 61 | 100 | 75 |  |  |  |  |  |  |
| FC(F)c1nc2ccccc2n1-c1nc(N2CCOCC2)nc(N2CCOCC2)n1 [ZSTK474, 2-(difluoromethyl)-1-[4,6-di(4-morpholinyl)-1,3,5-triazin-2-yl]-1H-benzimidazole] | 0.3 |  | 84 |  |  | 96 |  | 85 |  | 84 |  |  |  |  |  |  | 99.7 |
